Tests used:
[1] = test system: P. aeruginosa; format: cell-based, Pseudomonas aeruginosa; conditions: Trolox at concentrations above 2 mM; data not shown
[2] = Neutralisation by Trolox of ROS produced by gel containing 12% urea peroxide; conditions: 2 mM Trolox; FIG. 2

Cc1c(C)c2c(c(C)c1O)CCC(C)(C(=O)O)O2 (centres unmarked) [Trolox]
cytotoxicity to P. aeruginosa [1]: not to be cytotoxic | neutralization of ROS produced by the gel containing 12% urea peroxide [2]: neutralize the ROS

Source: patent publication US20180256914A1, “COMPOSITIONS AND METHODS FOR THE TREATMENT OF MUCOSITIS ASSOCIATED WITH TREATMENT-INDUCED NEUTROPENIA” (KLOX TECHNOLOGIES INC., priority 2015, published 2018)
